System: BE(2)-C cell
Test: Cell proliferation assay (MTS) in BE(2)-C cells
Assay type: cell-based
Details: Homo sapiens, inhibition of BE(2)-C cell proliferation, 48 h
In short: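 Proliferation read-out was MTS absorbance at 490 nm, with 650 nm as reference, after a 2 h MTS incubation, giving IC50 values. Before reading, BE(2)-C cells plated at 3000 per well were exposed to nine compound concentrations from 10000 down to 1.5 nM for 48 h at 37 °C, 5% CO2.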

SMILES	IC50 [µM]
C[C@@H]1CCc2nc3c(F)cc(-c4nc(Nc5ccc(CN6CCC7(CCN(C)CC7)CC6)cn5)ncc4F)cc3n21 [Example 93, (R)-5-fluoro-4-(5-fluoro-1-methyl-2,3-dihydro-1H-benzo[d]pyrrolo[1,2-a]imidazol-7-yl)-N-(5-((9-methyl-3,9-diazaspiro[5.5]undecan-3-yl)methyl)pyridin-2-yl)pyrimidin-2-amine]	> 0.1
CCN1CCC2(CC1)CCN(Cc1ccc(Nc3ncc(F)c(-c4cc(F)c5nc6n(c5c4)[C@H](C)CC6)n3)nc1)CC2 [Example 94, (R)-N-(5-((9-ethyl-3,9-diazaspiro[5.5]undecan-3-yl)methyl)pyridin-2-yl)-5-fluoro-4-(5-fluoro-1-methyl-2,3-dihydro-1H-benzo[d]pyrrolo[1,2-a]imidazol-7-yl)pyrimidin-2-amine]	> 0.1
C[C@@H]1CCc2nc3c(F)cc(-c4nc(Nc5ccc(CN6CC7(CNC7)C6)cn5)ncc4F)cc3n21 [Example 95, (R)-N-(5-((2,6-diazaspiro[3.3]heptan-2-yl)methyl)pyridin-2-yl)-5-fluoro-4-(5-fluoro-1-methyl-2,3-dihydro-1H-benzo[d]pyrrolo[1,2-a]imidazol-7-yl)pyrimidin-2-amine]	> 1
C[C@@H]1CCc2nc3c(F)cc(-c4nc(Nc5ccc(CN6CC7(CN(C)C7)C6)cn5)ncc4F)cc3n21 [Example 96, (R)-5-fluoro-4-(5-fluoro-1-methyl-2,3-dihydro-1H-benzo[d]pyrrolo[1,2-a]imidazol-7-yl)-N-(5-((6-methyl-2,6-diazaspiro[3.3]heptan-2-yl)methyl)pyridin-2-yl)pyrimidin-2-amine]	> 0.1
CCN1CC2(C1)CN(Cc1ccc(Nc3ncc(F)c(-c4cc(F)c5nc6n(c5c4)[C@H](C)CC6)n3)nc1)C2 [Example 97, (R)-N-(5-((6-ethyl-2,6-diazaspiro[3.3]heptan-2-yl)methyl)pyridin-2-yl)-5-fluoro-4-(5-fluoro-1-methyl-2,3-dihydro-1H-benzo[d]pyrrolo[1,2-a]imidazol-7-yl)pyrimidin-2-amine]	0.01 to 0.1
C[C@@H]1CCc2nc3c(F)cc(-c4nc(Nc5ccc(CN6CC7CNCC7C6)cn5)ncc4F)cc3n21 (stereo partly drawn) [Example 98, 5-fluoro-4-((R)-5-fluoro-1-methyl-2,3-dihydro-1H-benzo[d]pyrrolo[1,2-a]imidazol-7-yl)-N-(5-((hexahydropyrrolo[3,4-c]pyrrol-2(1H)-yl)methyl)pyridin-2-yl)pyrimidin-2-amine]	> 0.1
C[C@@H]1CCc2nc3c(F)cc(-c4nc(Nc5ccc(CN6CC7CN(C)CC7C6)cn5)ncc4F)cc3n21 (stereo partly drawn) [Example 99, 5-fluoro-4-((R)-5-fluoro-1-methyl-2,3-dihydro-1H-benzo[d]pyrrolo[1,2-a]imidazol-7-yl)-N-(5-((5-methylhexahydropyrrolo[3,4-c]pyrrol-2(1H)-yl)methyl)pyridin-2-yl)pyrimidin-2-amine]	0.01 to 0.1
CCN1CC2CN(Cc3ccc(Nc4ncc(F)c(-c5cc(F)c6nc7n(c6c5)[C@H](C)CC7)n4)nc3)CC2C1 (stereo partly drawn) [Example 100, N-(5-((5-ethylhexahydropyrrolo[3,4-c]pyrrol-2(1H)-yl)methyl)pyridin-2-yl)-5-fluoro-4-((R)-5-fluoro-1-methyl-2,3-dihydro-1H-benzo[d]pyrrolo[1,2-a]imidazol-7-yl)pyrimidin-2-amine]	0.01 to 0.1
C[C@@H]1CCc2nc3c(F)cc(-c4nc(Nc5ccc(CN6C7CCC6CNC7)cn5)ncc4F)cc3n21 [Example 101, N-(5-((3,8-diazabicyclo[3.2.1]octan-8-yl)methyl)pyridin-2-yl)-5-fluoro-4-((R)-5-fluoro-1-methyl-2,3-dihydro-1H-benzo[d]pyrrolo[1,2-a]imidazol-7-yl)pyrimidin-2-amine]	> 0.1
C[C@@H]1CCc2nc3c(F)cc(-c4nc(Nc5ccc(CN6C7CCC6CN(C)C7)cn5)ncc4F)cc3n21 [Example 102, 5-fluoro-4-((R)-5-fluoro-1-methyl-2,3-dihydro-1H-benzo[d]pyrrolo[1,2-a]imidazol-7-yl)-N-(5-((3-methyl-3,8-diazabicyclo[3.2.1]octan-8-yl)methy1)pyridin-2-yl)pyrimidin-2-amine]	0.01 to 0.1
CCN1CC2CCC(C1)N2Cc1ccc(Nc2ncc(F)c(-c3cc(F)c4nc5n(c4c3)[C@H](C)CC5)n2)nc1 [Example 103, N-(5-((3-ethyl-3,8-diazabicyclo[3.2.1]octan-8-yl)methyl)pyridin-2-yl)-5-fluoro-4-((R)-5-fluoro-1-methyl-2,3-dihydro-1H-benzo[d]pyrrolo[1,2-a]imidazol-7-yl)pyrimidin-2-amine]	0.01 to 0.1
C[C@@H]1CCc2nc3c(F)cc(-c4nc(Nc5ccc(CN6CC7CCC(C6)N7)cn5)ncc4F)cc3n21 [Example 104, N-(5-((3,8-diazabicyclo[3.2.1]octan-3-yl)methyl)pyridin-2-yl)-5-fluoro-4-((R)-5-fluoro-1-methyl-2,3-dihydro-1H-benzo[d]pyrrolo[1,2-a]imidazol-7-yl)pyrimidin-2-amine]	0.01 to 0.1
C[C@@H]1CCc2nc3c(F)cc(-c4nc(Nc5ccc(CN6CC7CCC(C6)N7C)cn5)ncc4F)cc3n21 [Example 105, 5-fluoro-4-((R)-5-fluoro-1-methyl-2,3-dihydro-1H-benzo[d]pyrrolo[1,2-a]imidazol-7-yl)-N-(5-((8-methyl-3,8-diazabicyclo[3.2.1]octan-3-yl)methyl)pyridin-2-yl)pyrimidin-2-amine]	0.01 to 0.1
CCN1C2CCC1CN(Cc1ccc(Nc3ncc(F)c(-c4cc(F)c5nc6n(c5c4)[C@H](C)CC6)n3)nc1)C2 [Example 106, N-(5-((8-ethyl-3,8-diazabicyclo[3.2.1]octan-3-yl)methyl)pyridin-2-yl)-5-fluoro-4-((R)-5-fluoro-1-methyl-2,3-dihydro-1H-benzo[d]pyrrolo[1,2-a]imidazol-7-yl)pyrimidin-2-amine]	0.01 to 0.1
CC1(C)CCc2nc3c(F)cc(-c4nc(Nc5ccc(CN6CCN7CCC[C@@H]7C6)cn5)ncc4F)cc3n21 [Example 110, (R)-5-fluoro-4-(5-fluoro-1,1-dimethyl-2,3-dihydro-1H-benzo[d]pyrrolo[1,2-a]imidazol-7-yl)-N-(5-((hexahydropyrrolo[1,2-a]pyrazin-2(1H)-yl)methyl)pyridin-2-yl)pyrimidin-2-amine]	0.01 to 0.1
CC1(C)CCc2nc3c(F)cc(-c4nc(Nc5ccc(CN6CC7(CCNCC7)C6)cn5)ncc4F)cc3n21 [Example 111, N-(5-((2,7-diazaspiro[3.5]nonan-2-yl)methyl)pyridin-2-yl)-5-fluoro-4-(5-fluoro-1,1-dimethyl-2,3-dihydro-1H-benzo[d]pyrrolo[1,2-a]imidazol-7-yl)pyrimidin-2-amine]	> 0.1
CN1CCC2(CC1)CN(Cc1ccc(Nc3ncc(F)c(-c4cc(F)c5nc6n(c5c4)C(C)(C)CC6)n3)nc1)C2 [Example 112, 5-fluoro-4-(5-fluoro-1,1-dimethyl-2,3-dihydro-1H-benzo[d]pyrrolo[1,2-a]imidazol-7-yl)-N-(5-((7-methyl-2,7-diazaspiro[3.5]nonan-2-yl)methyl)pyridin-2-yl)pyrimidin-2-amine]	< 0.01
CCN1CCC2(CC1)CN(Cc1ccc(Nc3ncc(F)c(-c4cc(F)c5nc6n(c5c4)C(C)(C)CC6)n3)nc1)C2 [Example 113, N-(5-((7-ethyl-2,7-diazaspiro[3.5]nonan-2-yl)methyl)pyridin-2-yl)-5-fluoro-4-(5-fluoro-1,1-dimethyl-2,3-dihydro-1H-benzo[d]pyrrolo[1,2-a]imidazol-7-yl)pyrimidin-2-amine]	< 0.01
CC1(C)CCc2nc3c(F)cc(-c4nc(Nc5ccc(CN6CCC7(CC6)CNC7)cn5)ncc4F)cc3n21 [Example 114, N-(5-((2,7-diazaspiro[3.5]nonan-7-yl)methyl)pyridin-2-yl)-5-fluoro-4-(5-fluoro-1,1-dimethyl-2,3-dihydro-1H-benzo[d]pyrrolo[1,2-a]imidazol-7-yl)pyrimidin-2-amine]	> 0.1
CN1CC2(CCN(Cc3ccc(Nc4ncc(F)c(-c5cc(F)c6nc7n(c6c5)C(C)(C)CC7)n4)nc3)CC2)C1 [Example 115, 5-fluoro-4-(5-fluoro-1,1-dimethyl-2,3-dihydro-1H-benzo[d]pyrrolo[1,2-a]imidazol-7-yl)-N-(5-((2-methyl-2,7-diazaspiro[3.5]nonan-7-yl)methyl)pyridin-2-yl)pyrimidin-2-amine]	0.01 to 0.1
CCN1CC2(CCN(Cc3ccc(Nc4ncc(F)c(-c5cc(F)c6nc7n(c6c5)C(C)(C)CC7)n4)nc3)CC2)C1 [Example 116, N-(5-((2-ethyl-2,7-diazaspiro[3.5]nonan-7-yl)methyl)pyridin-2-yl)-5-fluoro-4-(5-fluoro-1,1-dimethyl-2,3-dihydro-1H-benzo[d]pyrrolo[1,2-a]imidazol-7-yl)pyrimidin-2-amine]	0.01 to 0.1
CC1(C)CCc2nc3c(F)cc(-c4nc(Nc5ccc(CN6CC7(CNC7)C6)cn5)ncc4F)cc3n21 [Example 117, N-(5-((2,6-diazaspiro[3.3]heptan-2-yl)methyl)pyridin-2-yl)-5-fluoro-4-(5-fluoro-1,1-dimethyl-2,3-dihydro-1H-benzo[d]pyrrolo[1,2-a]imidazol-7-yl)pyrimidin-2-amine]	> 0.1
CN1CC2(C1)CN(Cc1ccc(Nc3ncc(F)c(-c4cc(F)c5nc6n(c5c4)C(C)(C)CC6)n3)nc1)C2 [Example 118, 5-fluoro-4-(5-fluoro-1,1-dimethyl-2,3-dihydro-1H-benzo[d]pyrrolo[1,2-a]imidazol-7-yl)-N-(5-((6-methyl-2,6-diazaspiro[3.3]heptan-2-yl)methyl)pyridin-2-yl)pyrimidin-2-amine]	0.01 to 0.1
CCN1CC2(C1)CN(Cc1ccc(Nc3ncc(F)c(-c4cc(F)c5nc6n(c5c4)C(C)(C)CC6)n3)nc1)C2 [Example 119, N-(5-((6-ethyl-2,6-diazaspiro[3.3]heptan-2-yl)methyl)pyridin-2-yl)-5-fluoro-4-(5-fluoro-1,1-dimethyl-2,3-dihydro-1H-benzo[d]pyrrolo[1,2-a]imidazol-7-yl)pyrimidin-2-amine]	0.01 to 0.1

Reference: patent publication US10450316B2, “Certain protein kinase inhibitor” (Chongqing Fochon Pharmaceutical Co., Ltd., priority 2015, dated 2019)
